From patent publication US20220119354A1, “DIAMINO-SUBSTITUTED PYRIDINES AND PYRIMIDINES AS HERBICIDES” (FMC Corporation, priority 2019, published 2022)

Columns and labels:
Assay type in all cases: in vivo
[1] = system: wheat (Triticum aestivum); assay: Test A postemergence, wheat; conditions: 0 to 100 scale
Outline: (§1)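 Pots of loam–sand mix; preemergence directed soil spray at sowing, postemergence spray at one- to two-leaf stage. Readout: visual injury vs untreated controls, ~10 d, 0–100 scale.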

kochia (Kochia scoparia) [2] = assay: Test A preemergence, kochia; conditions: 0 to 100 scale; for Kochia plant response rating: 0 is no effect, 100 is complete control
Outline: as §1

[3] = system: pigweed (Amaranthus retroflexus); assay: Test A preemergence, pigweed; conditions: 0 to 100 scale; for Pigweed plant response rating: 0 is no effect, 100 is complete control
Outline: as §1

kochia (Kochia scoparia) [4] = assay: Test A postemergence, kochia; conditions: 0 to 100 scale
Outline: as §1

[5] = system: barnyardgrass (Echinochloa crus-galli); assay: Test A preemergence, barnyardgrass; conditions: 0 to 100 scale; for Barnyardgrass plant response rating: 0 is no effect, 100 is complete control
Outline: as §1

[6] = system: ducksalad (Heteranthera limosa); assay: Test B flooded paddy test, ducksalad; conditions: Flood, 250 g ai/ha, applied to paddy water, 2-leaf stage, visual evaluation after 13 to 15 d
Outline: (§2)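 Plants grown to 2-leaf stage. Compounds applied directly into paddy water flooded 3 cm above soil, with that depth kept throughout. After 13–15 d in greenhouse, visual rating versus controls on a 0–100 scale (0 no effect, 100 complete control).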

[7] = system: barnyardgrass (Echinochloa crus-galli); assay: Test A postemergence, barnyardgrass; conditions: 0 to 100 scale
Outline: as §1

[8] = system: galium (catchweed bedstraw, Galium aparine); assay: Test A postemergence, galium; conditions: 0 to 100 scale
Outline: as §1

[9] = system: ryegrass, Italian (Lolium multiflorum); assay: Test A postemergence, Italian ryegrass; conditions: 0 to 100 scale
Outline: as §1

[10] = system: foxtail, giant (Setaria faberii); assay: Test A preemergence, giant foxtail; conditions: 0 to 100 scale; for Foxtail, Giant plant response rating: 0 is no effect, 100 is complete control
Outline: as §1

[11] = system: pigweed (Amaranthus retroflexus); assay: Test A postemergence, pigweed; conditions: 0 to 100 scale
Outline: as §1

[12] = system: barnyardgrass (Echinochloa crus-galli); assay: Test B flooded paddy test, barnyardgrass; conditions: Flood, 250 g ai/ha, applied to paddy water, 2-leaf stage, visual evaluation after 13 to 15 d
Outline: as §2

[13] = system: ragweed (common ragweed, Ambrosia elatior); assay: Test A postemergence, ragweed; conditions: 0 to 100 scale
Outline: as §1

rice (Oryza sativa) = assay: Test B flooded paddy test, rice; conditions: Flood, 250 g ai/ha, applied to paddy water, 2-leaf stage, visual evaluation after 13 to 15 d
Outline: as §2

corn (Zea mays) = assay: Test A postemergence, corn; conditions: 0 to 100 scale
Outline: as §1

[14] = system: sedge, umbrella (small-flower umbrella sedge, Cyperus difformis); assay: Test B flooded paddy test, umbrella sedge; conditions: Flood, 250 g ai/ha, applied to paddy water, 2-leaf stage, visual evaluation after 13 to 15 d
Outline: as §2

[15] = system: foxtail, giant (Setaria faberii); assay: Test A postemergence, giant foxtail; conditions: 0 to 100 scale
Outline: as §1

[16] = system: ragweed (common ragweed, Ambrosia elatior); assay: Test A preemergence, ragweed; conditions: 0 to 100 scale; for Ragweed plant response rating: 0 is no effect, 100 is complete control
Outline: as §1

[17] = system: ryegrass, Italian (Lolium multiflorum); assay: Test A preemergence, Italian ryegrass; conditions: 0 to 100 scale; for Ryegrass, Italian plant response rating: 0 is no effect, 100 is complete control
Outline: as §1

[18] = system: blackgrass (Alopecurus myosuroides); assay: Test A postemergence, blackgrass; conditions: 0 to 100 scale
Outline: as §1

[19] = 125 g ai/ha, 0 no effect, 100 complete control
[20] = 500 g ai/ha, 0 is no effect, 100 is complete control

Compound: C[C@@H](Nc1ncc(C(F)(F)F)c(N)n1)c1cc2ccc(F)cc2s1 [Compound 46]
- Plant response rating, Wheat [1, 19]: 0
- Wheat plant response rating [1, 20]: 0
- Kochia plant response rating (kochia (Kochia scoparia) [2]; 125 g ai/ha): 90
- Kochia plant response rating (kochia (Kochia scoparia) [2]; 500 g ai/ha): 100
- Pigweed plant response rating ([3]; 125 g ai/ha): 100
- Pigweed plant response rating ([3]; 500 g ai/ha): 100
- Plant response rating, Kochia (kochia (Kochia scoparia) [4]; [19]): 90
- Kochia plant response rating (kochia (Kochia scoparia) [4]; [20]): 90
- Barnyardgrass plant response rating ([5]; 125 g ai/ha): 20
- Barnyardgrass plant response rating ([5]; 500 g ai/ha): 90
- Plant response rating, Ducksalad (0 to 100 scale, 0 is no effect, 100 is complete control) [6]: 30
- Plant response rating, Barnyardgrass [7, 19]: 20
- Barnyardgrass plant response rating [7, 20]: 60
- Plant response rating, Galium [8, 19]: 60
- Galium plant response rating [8, 20]: 90
- Plant response rating, Ryegrass, Italian [9, 19]: 0
- Ryegrass, Italian plant response rating [9, 20]: 40
- Foxtail, Giant plant response rating ([10]; 125 g ai/ha): 70
- Foxtail, Giant plant response rating ([10]; 500 g ai/ha): 100
- Plant response rating, Pigweed [11, 19]: 100
- Pigweed plant response rating [11, 20]: 100
- Plant response rating, Barnyardgrass (0 to 100 scale, 0 is no effect, 100 is complete control) [12]: 40
- Plant response rating, Ragweed [13, 19]: 50
- Ragweed plant response rating [13, 20]: 80
- Plant response rating, Rice (0 to 100 scale, 0 is no effect, 100 is complete control) (rice (Oryza sativa)): 10
- Plant response rating, Corn (corn (Zea mays); [19]): 0
- Corn plant response rating (corn (Zea mays); [20]): 60
- Plant response rating, Sedge, Umbrella (0 to 100 scale, 0 is no effect, 100 is complete control) [14]: 95
- Plant response rating, Foxtail, Giant [15, 19]: 10
- Foxtail, Giant plant response rating [15, 20]: 60
- Ragweed plant response rating ([16]; 125 g ai/ha): 80
- Ragweed plant response rating ([16]; 500 g ai/ha): 100
- Ryegrass, Italian plant response rating ([17]; 125 g ai/ha): 20
- Ryegrass, Italian plant response rating ([17]; 500 g ai/ha): 80
- Plant response rating, Blackgrass [18, 19]: 20
- Blackgrass plant response rating [18, 20]: 30

Compound: C[C@@H](Nc1ncc(C(F)(F)F)c(N)n1)c1cc2ccc(C(F)(F)F)cc2o1 [Compound 15]
- Plant response rating, Wheat ([1]; 125 g ai/ha): 0
- Plant response rating, Wheat ([1]; 500 g ai/ha): 0
- Plant response rating, Kochia (kochia (Kochia scoparia) [2]; 125 g ai/ha): 40
- Plant response rating, Kochia (kochia (Kochia scoparia) [2]; 500 g ai/ha): 50
- Plant response rating, Pigweed ([3]; 125 g ai/ha): 80
- Plant response rating, Pigweed ([3]; 500 g ai/ha): 100
- Plant response rating, Kochia (kochia (Kochia scoparia) [4]; 125 g ai/ha): 40
- Plant response rating, Kochia (kochia (Kochia scoparia) [4]; 500 g ai/ha): 80
- Plant response rating, Barnyardgrass ([5]; 125 g ai/ha): 20
- Plant response rating, Barnyardgrass ([5]; 500 g ai/ha): 70
- Plant response rating, Ducksalad (0 to 100 scale, 0 is no effect, 100 is complete control) [6]: 0
- Plant response rating, Barnyardgrass ([7]; 125 g ai/ha): 30
- Plant response rating, Barnyardgrass ([7]; 500 g ai/ha): 30
- Plant response rating, Galium ([8]; 125 g ai/ha): 60
- Plant response rating, Galium ([8]; 500 g ai/ha): 80
- Plant response rating, Ryegrass, Italian ([9]; 125 g ai/ha): 0
- Plant response rating, Ryegrass, Italian ([9]; 500 g ai/ha): 30
- Plant response rating, Foxtail, Giant ([10]; 125 g ai/ha): 20
- Plant response rating, Foxtail, Giant ([10]; 500 g ai/ha): 90
- Plant response rating, Pigweed ([11]; 125 g ai/ha): 90
- Plant response rating, Pigweed ([11]; 500 g ai/ha): 90
- Plant response rating, Barnyardgrass (0 to 100 scale, 0 is no effect, 100 is complete control) [12]: 0
- Plant response rating, Ragweed ([13]; 125 g ai/ha): 20
- Plant response rating, Ragweed ([13]; 500 g ai/ha): 40
- Plant response rating, Rice (0 to 100 scale, 0 is no effect, 100 is complete control) (rice (Oryza sativa)): 0
- Plant response rating, Corn (corn (Zea mays); 125 g ai/ha): 0
- Plant response rating, Corn (corn (Zea mays); 500 g ai/ha): 20
- Plant response rating, Sedge, Umbrella (0 to 100 scale, 0 is no effect, 100 is complete control) [14]: 0
- Plant response rating, Foxtail, Giant ([15]; 125 g ai/ha): 30
- Plant response rating, Foxtail, Giant ([15]; 500 g ai/ha): 80
- Plant response rating, Ragweed ([16]; 125 g ai/ha): 30
- Plant response rating, Ragweed ([16]; 500 g ai/ha): 90
- Plant response rating, Ryegrass, Italian ([17]; 125 g ai/ha): 0
- Plant response rating, Ryegrass, Italian ([17]; 500 g ai/ha): 70
- Plant response rating, Blackgrass ([18]; 125 g ai/ha): 0
- Plant response rating, Blackgrass ([18]; 500 g ai/ha): 30
